Laboratory results as given in patent US20230139171A1 (SITA Information Networking Computing UK Limited, priority 2019, published 2023).
pIC50: −log10 of the molar value.

How the values were obtained:
Format in all cases: cell-based
[1] = target: T1, human TLR7 (Homo sapiens, UniProt Q9NYK1); test: TLR7 inhibition reporter assay (HEK-Blue cells, SEAP reporter, gardiquimod stimulation); conditions: HEK-Blue cells overexpressing human TLR7, SEAP reporter, gardiquimod 7.5 μM; read-out: TLR7 IC50
T1 construct: host or cells: HEK-Blue cells
T1 sequence (Q9NYK1 27-1049): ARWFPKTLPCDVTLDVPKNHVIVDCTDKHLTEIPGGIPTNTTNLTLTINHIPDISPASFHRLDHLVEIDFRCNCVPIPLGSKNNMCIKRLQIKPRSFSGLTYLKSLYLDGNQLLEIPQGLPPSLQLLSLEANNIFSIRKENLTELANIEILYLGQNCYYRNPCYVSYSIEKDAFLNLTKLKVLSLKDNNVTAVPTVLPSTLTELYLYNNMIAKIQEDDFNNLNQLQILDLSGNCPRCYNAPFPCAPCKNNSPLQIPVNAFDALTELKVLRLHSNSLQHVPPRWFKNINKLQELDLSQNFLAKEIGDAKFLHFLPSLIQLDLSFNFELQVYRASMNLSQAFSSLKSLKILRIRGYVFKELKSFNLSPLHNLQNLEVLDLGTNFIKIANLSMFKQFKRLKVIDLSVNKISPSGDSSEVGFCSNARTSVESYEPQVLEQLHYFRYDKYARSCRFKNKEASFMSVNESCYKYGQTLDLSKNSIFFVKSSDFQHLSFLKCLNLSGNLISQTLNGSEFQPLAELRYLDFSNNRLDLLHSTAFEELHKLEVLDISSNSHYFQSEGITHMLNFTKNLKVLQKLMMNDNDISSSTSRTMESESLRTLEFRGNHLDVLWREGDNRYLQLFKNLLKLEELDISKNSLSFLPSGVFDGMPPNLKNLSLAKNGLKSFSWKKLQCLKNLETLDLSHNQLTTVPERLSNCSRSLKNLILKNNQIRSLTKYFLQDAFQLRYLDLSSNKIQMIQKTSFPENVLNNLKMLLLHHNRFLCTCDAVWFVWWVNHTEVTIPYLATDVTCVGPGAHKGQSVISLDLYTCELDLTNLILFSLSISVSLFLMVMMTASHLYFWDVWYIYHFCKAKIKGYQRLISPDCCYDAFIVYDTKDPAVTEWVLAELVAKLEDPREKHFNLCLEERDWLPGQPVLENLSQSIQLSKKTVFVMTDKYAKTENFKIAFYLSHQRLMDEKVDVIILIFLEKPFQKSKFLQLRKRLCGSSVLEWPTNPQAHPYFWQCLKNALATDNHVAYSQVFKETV
In short: (§1)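 Human TLR7/8/9 HEK-Blue reporter lines; dose range 0.05 nM–50 μM; 30 min RT preincubation; stimulus gardiquimod 7.5 μM / R848 15.9 μM / ODN2006 5 nM respectively; 22 h, 37 °C; SEAP detected colorimetrically.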

[2] = target: T2, human TLR9 (Homo sapiens, UniProt Q9NR96); test: TLR9 inhibition reporter assay (HEK-Blue cells, SEAP reporter, ODN2006 stimulation); conditions: HEK-Blue cells overexpressing human TLR9, SEAP reporter, ODN2006 5 nM
T2 construct: host or cells: HEK-Blue cells
T2 sequence (Q9NR96 26-1032): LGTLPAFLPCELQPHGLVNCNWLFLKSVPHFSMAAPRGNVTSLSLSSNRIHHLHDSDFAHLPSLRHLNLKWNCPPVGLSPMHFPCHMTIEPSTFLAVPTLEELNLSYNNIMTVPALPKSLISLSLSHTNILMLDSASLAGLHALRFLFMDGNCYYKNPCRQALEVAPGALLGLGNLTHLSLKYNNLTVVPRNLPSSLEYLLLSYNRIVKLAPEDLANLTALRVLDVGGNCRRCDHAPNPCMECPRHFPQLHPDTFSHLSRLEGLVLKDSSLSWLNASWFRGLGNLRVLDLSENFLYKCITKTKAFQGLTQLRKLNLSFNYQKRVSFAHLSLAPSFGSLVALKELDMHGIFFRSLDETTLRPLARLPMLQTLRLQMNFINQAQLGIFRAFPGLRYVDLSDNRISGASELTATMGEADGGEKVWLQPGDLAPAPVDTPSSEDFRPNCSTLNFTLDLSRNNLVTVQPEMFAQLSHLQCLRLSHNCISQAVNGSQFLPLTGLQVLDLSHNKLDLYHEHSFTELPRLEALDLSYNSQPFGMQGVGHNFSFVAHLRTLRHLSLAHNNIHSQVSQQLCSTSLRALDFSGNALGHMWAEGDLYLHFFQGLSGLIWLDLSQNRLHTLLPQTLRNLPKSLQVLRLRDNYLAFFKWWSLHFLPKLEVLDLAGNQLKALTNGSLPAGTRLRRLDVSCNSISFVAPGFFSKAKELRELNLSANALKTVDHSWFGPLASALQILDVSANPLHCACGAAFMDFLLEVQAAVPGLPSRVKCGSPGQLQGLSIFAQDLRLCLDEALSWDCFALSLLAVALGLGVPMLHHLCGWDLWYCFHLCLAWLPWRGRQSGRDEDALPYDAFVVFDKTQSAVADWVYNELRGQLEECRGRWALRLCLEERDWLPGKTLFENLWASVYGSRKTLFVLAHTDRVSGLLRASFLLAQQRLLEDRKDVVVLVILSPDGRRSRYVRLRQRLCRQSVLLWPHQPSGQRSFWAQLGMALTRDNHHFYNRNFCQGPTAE
In short: as §1

[3] = target: T3, human TLR8 (Homo sapiens, UniProt Q9NR97); test: TLR8 inhibition reporter assay (HEK-Blue cells, SEAP reporter, R848 stimulation); conditions: HEK-Blue cells overexpressing human TLR8, SEAP reporter, R848 15.9 μM; read-out: TLR8 IC50
T3 construct: host or cells: HEK-Blue cells
T3 sequence (Q9NR97 27-1041): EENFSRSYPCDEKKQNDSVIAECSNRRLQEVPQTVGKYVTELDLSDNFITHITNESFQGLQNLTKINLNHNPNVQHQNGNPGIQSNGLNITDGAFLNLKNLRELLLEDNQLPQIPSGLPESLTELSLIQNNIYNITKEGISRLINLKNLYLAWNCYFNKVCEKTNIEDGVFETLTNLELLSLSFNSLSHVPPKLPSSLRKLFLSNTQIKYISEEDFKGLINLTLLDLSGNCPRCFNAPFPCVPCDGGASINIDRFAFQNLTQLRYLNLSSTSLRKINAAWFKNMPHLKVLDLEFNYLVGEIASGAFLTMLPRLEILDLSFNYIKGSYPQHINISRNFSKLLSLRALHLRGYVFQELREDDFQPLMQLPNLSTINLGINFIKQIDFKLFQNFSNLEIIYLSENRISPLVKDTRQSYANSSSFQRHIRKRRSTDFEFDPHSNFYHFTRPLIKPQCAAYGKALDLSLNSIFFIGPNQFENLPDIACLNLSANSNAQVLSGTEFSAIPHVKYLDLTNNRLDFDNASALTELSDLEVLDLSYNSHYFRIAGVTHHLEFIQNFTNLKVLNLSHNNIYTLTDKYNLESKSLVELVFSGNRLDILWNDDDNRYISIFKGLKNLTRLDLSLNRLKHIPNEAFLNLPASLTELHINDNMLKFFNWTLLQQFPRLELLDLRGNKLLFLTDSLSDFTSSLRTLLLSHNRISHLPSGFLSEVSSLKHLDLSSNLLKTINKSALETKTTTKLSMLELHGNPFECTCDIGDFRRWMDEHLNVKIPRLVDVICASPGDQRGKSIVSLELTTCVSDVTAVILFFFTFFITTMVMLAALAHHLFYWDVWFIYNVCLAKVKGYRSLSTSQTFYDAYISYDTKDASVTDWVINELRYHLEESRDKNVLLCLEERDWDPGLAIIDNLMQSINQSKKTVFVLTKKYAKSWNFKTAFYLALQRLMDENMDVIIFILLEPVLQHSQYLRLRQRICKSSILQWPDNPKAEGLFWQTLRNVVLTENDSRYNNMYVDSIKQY
In short: as §1

Structure (SMILES)	pIC50 [1]	pIC50 [2]	pIC50 [3]
COC1CN(C2CCC(c3nc4c(C(C)C)c(-c5cn6ncnc6cc5C)[nH]c4s3)CC2)C1 (single isomer, unassigned) [Example 151, 6-isopropyl-2-(4-(3-methoxyazetidin-1-yl)cyclohexyl)-5-(7-methyl-[1,2,4]triazolo[1,5-a]pyridin-6-yl)-4H-pyrrolo[3,2-d]thiazole]	7.31	4.63	7.22
Cc1cc2ncnn2cc1-c1[nH]c2sc(C3CCC(NC4COC4)CC3)nc2c1C(C)C (single isomer, unassigned) [Example 152, N-(4-(6-isopropyl-5-(7-methyl-[1,2,4]triazolo[1,5-a]pyridin-6-yl)-4H-pyrrolo[3,2-d]thiazol-2-yl)cyclohexyl)oxetan-3-amine]	7.86	4.68	7.50
Cc1cc2ncnn2cc1-c1[nH]c2sc(C3CCC(NC4COC4)CC3)nc2c1C(C)C (single isomer, unassigned) [Example 153, N-(4-(6-isopropyl-5-(7-methyl-[1,2,4]triazolo[1,5-a]pyridin-6-yl)-4H-pyrrolo[3,2-d]thiazol-2-yl)cyclohexyl)oxetan-3-amine]	7.56	4.65	8.18
Cc1cc2ncnn2cc1-c1[nH]c2sc(C3CCC(N4CCCC4)CC3)nc2c1C(C)C (single isomer, unassigned) [Example 154, 6-isopropyl-5-(7-methyl-[1,2,4]triazolo[1,5-a]pyridin-6-yl)-2-(4-(pyrrolidin-1-yl)cyclohexyl)-4H-pyrrolo[3,2-d]thiazole]	7.92	5.03	8.48
Cc1cc2ncnn2cc1-c1[nH]c2sc(C3CCC(N4CCCC4)CC3)nc2c1C(C)C (single isomer, unassigned) [Example 155, 6-isopropyl-5-(7-methyl-[1,2,4]triazolo[1,5-a]pyridin-6-yl)-2-(4-(pyrrolidin-1-yl)cyclohexyl)-4H-pyrrolo[3,2-d]thiazole]	7.38	< 4.30	7.67
Cc1cc2ncnn2cc1-c1[nH]c2sc(C3CCC(NCC(C)(C)O)CC3)nc2c1C(C)C (single isomer, unassigned) [Example 157, 1-((4-(6-isopropyl-5-(7-methyl-[1,2,4]triazolo[1,5-a]pyridin-6-yl)-4H-pyrrolo[3,2-d]thiazol-2-yl)cyclohexyl)amino)-2-methylpropan-2-ol]	7.43	4.79	7.92
Cc1cc2ncnn2cc1-c1[nH]c2sc(C3CCC(NC4CCOCC4)CC3)nc2c1C(C)C (single isomer, unassigned) [Example 161, N-(4-(6-isopropyl-5-(7-methyl-[1,2,4]triazolo[1,5-a]pyridin-6-yl)-4H-pyrrolo[3,2-d]thiazol-2-yl)cyclohexyl) tetrahydro-2H-pyran-4-amine]	7.74	4.77	7.83

These reach a higher pIC50 [1]. Values come first.

pIC50 [1]	pIC50 [2]	pIC50 [3]	Structure (SMILES)
9.24	5.55	9.41	COC1CN(C2CCC(c3nc4c(C(C)C)c(-c5cn6ncnc6cc5C)[nH]c4s3)CC2)C1 (single isomer, unassigned) [Example 150, 6-isopropyl-2-(4-(3-methoxyazetidin-1-yl)cyclohexyl)-5-(7-methyl-[1,2,4]triazolo[1,5-a]pyridin-6-yl)-4H-pyrrolo[3,2-d]thiazole]
8.76	4.96	10.05	Cc1cc2ncnn2cc1-c1[nH]c2sc(C3CCC(NCC(C)(C)O)CC3)nc2c1C(C)C (single isomer, unassigned) [Example 156, 1-((4-(6-isopropyl-5-(7-methyl-[1,2,4]triazolo[1,5-a]pyridin-6-yl)-4H-pyrrolo[3,2-d]thiazol-2-yl)cyclohexyl)amino)-2-methylpropan-2-ol]
8.05	4.84	7.51	Cc1cc2ncnn2cc1-c1[nH]c2sc(C3CCC(N(C)C(C)C)CC3)nc2c1C(C)C (single isomer, unassigned) [Example 158, N-isopropyl-4-(6-isopropyl-5-(7-methyl-[1,2,4]triazolo[1,5-a]pyridin-6-yl)-4H-pyrrolo[3,2-d]thiazol-2-yl)-N-methylcyclohexan-1-amine]
8.06	5.16	8.32	Cc1cc2ncnn2cc1-c1[nH]c2sc(C3CCC(N(C)C(C)C)CC3)nc2c1C(C)C (single isomer, unassigned) [Example 159, N-isopropyl-4-(6-isopropyl-5-(7-methyl-[1,2,4]triazolo[1,5-a]pyridin-6-yl)-4H-pyrrolo[3,2-d]thiazol-2-yl)-N-methylcyclohexan-1-amine]
9.21	5.28	10.22	Cc1cc2ncnn2cc1-c1[nH]c2sc(C3CCC(NC4CCOCC4)CC3)nc2c1C(C)C (single isomer, unassigned) [Example 160, N-(4-(6-isopropyl-5-(7-methyl-[1,2,4]triazolo[1,5-a]pyridin-6-yl)-4H-pyrrolo[3,2-d]thiazol-2-yl)cyclohexyl) tetrahydro-2H-pyran-4-amine]
